Measured values as given in US11274332B2, “Methods of administering 3,4-diaminopyridine” (SERB SA, priority 2011, dated 2022).

Assay: Food-effect crossover study, adverse events after single 20 mg amifampridine phosphate in healthy subjects (Examples 10, 11)
Format: in vivo
Method: This was a randomized, open-label, 2-treatment, 2-period crossover study with 44 completed subjects to assess the safety, tolerability, and the effect of food on the relative bioavailability of a single dose of amifampridine phosphate.
Safety was evaluated for all subjects who take at least one dose of 3,4-DAP. Safety was evaluated by recording the incidence of adverse events (AEs), physical examination, vital signs, concomitant medications, clinical laboratory assessments, and 12-lead electrocardiogram (ECG).
Analysis for the following safety parameters was carried out on the Safety Population: AEs which included all AEs, AEs by severity, drug-related AEs, deaths, SAEs, AEs leading to study discontinuation, and most frequent AEs, standard clinical laboratory tests, vital signs, ECG measurements, routine physical examinations, and prior and concomitant medications. The cut-off for frequency of AEs reported was determined based on the data. No formal statistical testing was performed for the safety analyses; only descriptive statistics were provided. Appropriate descriptive statistics for the safety data were determined using SAS Version 9.2.
AEs were coded according to the Medical Dictionary for Regulatory Activities (MedDRA; Version 13.0). […] The occurrence of AEs was assessed continuously from the time the subject signed the VID and consent. The reporting period for non-serious AEs was from the first dose to the final study visit. The investigator determined the severity of each event and the relationship of an AE to the IP and recorded it on the source documents and AE CRF. The nature, time of onset, duration, severity, and relationship to study drug was documented, including documentation of investigator assessment and review. All events were assessed to determine if the AE was serious.
The Investigator determined the severity of each event and the event was recorded on the source documents and AE CRF. A coding of “mild” meant there was no limitation of usual activities, “moderate” meant there was some limitation of usual activities, “severe” meant there was an inability to carry out usual activities.
The reporting period for AEs that met the criteria of an SAE began from the time of signing the VID and consent form through follow-up or early termination. […] Clinical Laboratory Assessments

## Nc1ccncc1N [3,4-DAP, 3,4-diaminopyridine]
Overall
  paraesthesias among the 93 drug-related AEs: % of events: 54%
  paraesthesias among the 93 drug-related AEs: events: 50
Overall N=47
  Abdominal Pain, drug-related AE: events: 3
  Dizziness, drug-related AE: events: 7
  Dysgeusia, drug-related AE: events: 3
  Fatigue, drug-related AE: events: 4
  Gastrointestinal Disorders Total, drug-related AE: % of subjects: 19%
  Gastrointestinal Disorders Total, drug-related AE: events: 12
  Gastrointestinal Disorders Total, drug-related AE: subjects: 9
  Headache, drug-related AE: events: 5
  Hypoaesthesia Oral, drug-related AE: events: 6
  Nausea, drug-related AE: events: 4
  Nervous System Disorders Total, drug-related AE: % of subjects: 57%
  Nervous System Disorders Total, drug-related AE: events: 74
  Nervous System Disorders Total, drug-related AE: subjects: 27
  Paraesthesia Oral, drug-related AE: events: 30
  Paraesthesia, drug-related AE: events: 20
